{
  "source": "paper PMC11357638",
  "about": "(Molecules, 2024)",
  "assay_type_in_all_cases": "cell-based",
  "key": {"[1]": {"target": "T1, human TRPV1 (hTRPV1) channels (Homo sapiens, UniProt Q8NER1)", "T1 construct": "expressed in transfected cells; host or cells: HEK293T", "test": "Whole-cell patch-clamp selectivity, hTRPV1 in HEK293T cells", "conditions": "HEK-293T; CA at 1000 μM, current caused by 1 μM capsaicin, mean ± SD, n = 5"}, "hTRPV3 T636A mutant": {"target": "T2, hTRPV3 T636A mutant (Homo sapiens, UniProt Q8NET8, T636A)", "T2 construct": "expressed in transfected cells; host or cells: HEK293T", "T2 sequence (Q8NET8 1-790 T636A)": "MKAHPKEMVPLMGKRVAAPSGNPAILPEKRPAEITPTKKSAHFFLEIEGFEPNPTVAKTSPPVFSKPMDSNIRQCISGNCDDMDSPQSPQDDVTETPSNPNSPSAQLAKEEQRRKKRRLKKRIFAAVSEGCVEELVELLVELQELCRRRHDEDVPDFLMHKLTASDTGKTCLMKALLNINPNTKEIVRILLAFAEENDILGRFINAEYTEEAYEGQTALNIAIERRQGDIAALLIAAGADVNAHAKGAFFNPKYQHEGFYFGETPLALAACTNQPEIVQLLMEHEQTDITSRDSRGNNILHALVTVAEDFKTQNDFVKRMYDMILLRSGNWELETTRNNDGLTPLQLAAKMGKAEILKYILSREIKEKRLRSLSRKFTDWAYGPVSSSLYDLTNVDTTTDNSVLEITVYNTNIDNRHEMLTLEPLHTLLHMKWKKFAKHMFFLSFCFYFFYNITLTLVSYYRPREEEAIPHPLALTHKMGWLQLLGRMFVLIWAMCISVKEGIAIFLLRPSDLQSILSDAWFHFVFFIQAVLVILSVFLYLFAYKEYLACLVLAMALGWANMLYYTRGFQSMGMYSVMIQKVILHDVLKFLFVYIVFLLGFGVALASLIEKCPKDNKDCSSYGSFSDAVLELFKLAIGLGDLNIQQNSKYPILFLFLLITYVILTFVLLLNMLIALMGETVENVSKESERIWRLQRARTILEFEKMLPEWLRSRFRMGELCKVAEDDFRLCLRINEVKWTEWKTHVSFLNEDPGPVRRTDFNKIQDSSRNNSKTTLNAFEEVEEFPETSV", "test": "Whole-cell patch-clamp of hTRPV3 T636A mutant in HEK293T cells"}, "hTRPV3 I637A mutant": {"target": "T3, hTRPV3 I637A mutant (Homo sapiens, UniProt Q8NET8, I637A)", "T3 construct": "expressed in transfected cells; host or cells: HEK293T", "T3 sequence (Q8NET8 1-790 I637A)": "T2 sequence (Q8NET8 1-790 T636A) with A636T, I637A", "test": "Whole-cell patch-clamp of hTRPV3 I637A mutant in HEK293T cells"}, "hTRPV3 L670A mutant": {"target": "T4, hTRPV3 L670A mutant (Homo sapiens, UniProt Q8NET8, L670A)", "T4 construct": "expressed in transfected cells; host or cells: HEK293T", "T4 sequence (Q8NET8 1-790 L670A)": "T2 sequence (Q8NET8 1-790 T636A) with A636T, L670A", "test": "Whole-cell patch-clamp of hTRPV3 L670A mutant in HEK293T cells", "conditions": "50 μM 2-APB"}},
  "note": "Numbering of substitutions follows the chain as printed. Where “and” joins values, the source holds several entries; their conditions need not be identical. Identical values can stand only once.",
  "data": [
    {"smiles": "O=C(O)/C=C/c1ccc(O)c(O)c1", "note": "[CA, caffeic acid]", "values": [
      {"measurement": "inhibition at 1000 µM", "setting": "[1]", "value": "~20", "unit": "%"},
      {"measurement": "IC50", "setting": "hTRPV3 T636A mutant; T636A hTRPV3, 50 μM 2-APB, +80 mV, Hill fit, read-out: IC50, inhibition of T636A mutant outward currents", "value": "> 1000 µM and 1000 µM"},
      {"measurement": "channel current inhibition by 500 μM CA compared to WT", "setting": "hTRPV3 T636A mutant; T636A mutant, 50 μM 2-APB, 500 μM CA", "value": "significantly diminished"},
      {"measurement": "IC50", "setting": "hTRPV3 I637A mutant; I637A hTRPV3, 50 μM 2-APB, +80 mV, Hill fit, read-out: IC50, inhibition of I637A mutant outward currents", "value": "306 ± 61.1", "unit": "µM"},
      {"measurement": "channel current inhibition by 500 μM CA compared to WT", "setting": "hTRPV3 I637A mutant; I637A mutant, 50 μM 2-APB, 500 μM CA", "value": "significantly diminished"},
      {"measurement": "channel current inhibition by 500 μM CA compared to WT", "setting": "hTRPV3 L670A mutant", "value": "no significant difference"}
    ]}
  ]
}
